Test results as given in patent US20190322676A1, “CERAMIDE GALACTOSYLTRANSFERASE INHIBITORS FOR THE TREATMENT OF DISEASE” (BioMarin Pharmaceutical Inc., priority 2016, published 2019).
Counter-ions that a name gives are not always drawn.

These molecules were tested against T1, human CGT (ceramide galactosyltransferase), CHO/CGT lysate (Homo sapiens, UniProt Q16880) (assay: CGT enzyme assay, RapidFire/MS/MS readout (Table 1 ranges with one asterisk *)). Settings: RapidFire method (range with one asterisk *).
T1 construct: Full-length human CGT cDNA was cloned into the BamH1/Xho1 site of pcDNA3.1 (+); expressed in transfected cells; host or cells: Chinese hamster ovary (CHO) cells; lysate prepared with M-PER
T1 sequence (Q16880 21-541): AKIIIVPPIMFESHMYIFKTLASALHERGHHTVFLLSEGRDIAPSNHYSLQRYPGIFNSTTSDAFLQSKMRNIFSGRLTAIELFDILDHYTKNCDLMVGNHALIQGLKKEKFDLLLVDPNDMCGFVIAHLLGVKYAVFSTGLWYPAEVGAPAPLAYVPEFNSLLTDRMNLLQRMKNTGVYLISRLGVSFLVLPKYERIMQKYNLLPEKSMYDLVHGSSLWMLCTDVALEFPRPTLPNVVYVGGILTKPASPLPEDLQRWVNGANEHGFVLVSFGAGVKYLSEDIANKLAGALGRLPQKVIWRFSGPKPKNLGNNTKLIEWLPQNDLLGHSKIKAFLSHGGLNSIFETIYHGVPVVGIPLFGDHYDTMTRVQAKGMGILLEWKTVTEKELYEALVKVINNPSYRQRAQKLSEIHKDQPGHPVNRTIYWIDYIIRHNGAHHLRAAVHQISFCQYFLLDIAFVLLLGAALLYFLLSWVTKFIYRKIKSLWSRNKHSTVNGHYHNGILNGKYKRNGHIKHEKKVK
Assay type: biochemical
Protocol: Full-length human CGT cDNA was cloned into the BamH1/Xho1 site of pcDNA3.1 (+) mammalian expression vector (V90-20, Invitrogen, Carlsbad, Calif.) and the plasmid was transfected into Chinese hamster ovary (CHO) cells. Lysate was prepared using M-PER (Mammalian Protein Extraction Reagent, ThermoFisher Scientific, Grand Island, N.Y.) in the presence of a protease inhibitor cocktail (P8340, Sigma, Saint Louis, Mo.). Each 100 mm dish (100% confluent, approximately 1×10^7 cells) was lysed with 250 μL of M-PER containing protease inhibitors. Protein concentration was determined using a Pierce BCA protein assay kit (ThermoFisher Scientific). Four micrograms of CHO/CGT lysate was incubated with various concentrations of a compound (0.001 μM-50 μM) in 10 mM HEPES (pH 7.2) containing 35 μM dioleoylphosphatidylcholine, 5 mM MgCl2, 5 mM MnCl2, 1% BSA, 15 mM KCl, 1 mM EGTA, 8 mM CHAPS, 10 μM C6-NBD-dihydro-ceramide and 17.5 μM UDP-galactose in a final reaction volume of 20 μL at 37° C. for 1 hour. The final concentration of DMSO was 0.5% in both compound-treated and mock-treated samples. Tween 80 (0.01%) was optionally added to the reaction mixture to help solubilize the compounds. Each individual reaction was diluted with 80 μL of methanol:acetronitrile (1:3) containing 5 μM N-docdecanoyl-NBD-galactosylceramide (internal standard) to stop the reaction. 200 μL H2O:acetonitile (1:1) was added to precipitate the protein. After sufficient mixing, the plates were centrifuged at 2469 g for 38 minutes, 200 μL of supernatant was transferred to a LC/MS 96-deep well plate and a second spin was performed at 2469 g for 10 minutes. The final supernatant was injected in triplicate for RapidFire/MS/MS analysis.
Quantitative Analysis Using the RapidFire/MS/MS Method:
The quantitative analysis of C6-NBD-dihydro-ceramide and C6-NBD-dihydro-galactosylceramide was performed on a Rapid Fire 360 high-throughput mass spectrometry system (Agilent Technologies, Palo Alto, Calif.) coupled with a API4000^+ triple quadrupole mass spectrometer (Applied Biosystems, Concord, Ontario, Canada). RapidFire software packages, including RapidFire Control panel, RapidFire UI and RapidFire Integrator (Agilent Technologies), were used to control the RapidFire instrument and to process data. Analyst 1.6.2 software packages (Applied Biosystems) were used to control the MS system and acquire MS data. […] of sample was loaded on a micro-scale C4 solid-phase extraction (SPE) cartridge (Agilent Technologies) and salts were removed using water supplemented with 0.1% formic acid at the flow rate of 1.5 mL/min for 3 sec. C6-NBD-dihydro-ceramide and C6-NBD-dihydro-galactosylceramide were co-eluted into the mass spectrometer using acetonitrile containing 0.1% formic acid at the flow rate of 1.0 mL/min for 3 sec. The total cycle time of one injection was 8 secs. The MS/MS detection was performed in ESI negative mode. The mass transition of C6-NBD-dihydro-galactosylceramide was m/z 752.6→678.6 using a −40 V collision energy, the mass transition of C6-NBD-dihydro-ceramide was m/z 590.6→115.8 using a −40 V collision energy and the mass transition of N-docdecanoyl-NBD-galactosylceramide was m/z 820.9→746.3 using a −45 V collision energy.
The C6-NBD-dihydro-galactosylceramide reading was normalized first by dividing the peak area of C6-NBD-dihydro-galactosylceramide by the peak area of the internal standard, N-docdecanoyl-NBD-galactosylceramide. IC50 values (see Table 1, where data ranges with one asterix (*) correspond to analysis using the RapidFire/MS/MS method, and data ranges with two asterixes (**) correspond to analysis using the RapidFire/MS/MS method with 0.01% Tween added) were generated from sigmoidal dose-response curves (variable slope) with GraphPad Prism software (GraphPad Software, Inc., San Diego, Calif.) using the normalized peak areas of C6-NBD-dihydro-galactosylceramide or the percent inhibition of C6-NBD-dihydro-galactosylceramide accumulation relative to DMSO control. […]

| Structure (SMILES) | IC50 |
| --- | --- |
| NC1CCN(C(=O)[C@@H](NS(=O)(=O)c2ccc(OCC3CCCCC3)cc2)C(F)(F)c2cccc(Oc3ccccc3)c2)CC1 [Compound 109-1, (R)—N-(3-(4-aminopiperidin-1-yl)-1,1-difluoro-3-oxo-1-(3-phenoxyphenyl)propan-2-yl)-4-(cyclohexylmethoxy)benzenesulfonamide trifluoroacetate] | 1 to 10 µM |
| CCCCOc1cc(C(F)(F)[C@H](NS(=O)(=O)c2ccc(OCC3CCCCC3)cc2)C(=O)N2C3CCC2CC(N)C3)ccc1Cl (stereo partly drawn) [Compound 120-1, N-((2R)-3-(3-amino-8-azabicyclo[3.2.1]octan-8-yl)-1-(3-butoxy-4-chlorophenyl)-1,1-difluoro-3-oxopropan-2-yl)-4-(cyclohexylmethoxy) benzenesulfonamide] | < 1 µM |
| NCC1CCN(C(=O)[C@@H](NS(=O)(=O)c2ccc3cc(OC4CCCC4)ccc3c2)C(F)(F)c2ccc(-c3ccc(Cl)cc3)cc2)CC1 [Compound 138-1, (R)—N-(3-(4-(aminomethyl)piperidin-1-yl)-1-(4′-chloro-[1,1′-biphenyl]-4-yl)-1,1-difluoro-3-oxopropan-2-yl)-6-(cyclopentyloxy)naphthalene-2-sulfonamide trifluoroacetate] | < 1 µM |
| COc1cc(C(F)(F)[C@H](NS(=O)(=O)c2ccc3cc(OC4CCCC4)ccc3c2)C(=O)N2C3CCC2CC(N)C3)ccc1Cl (stereo partly drawn) [Compound 124-1, N-((2R)-3-(3-amino-8-azabicyclo[3.2.1]octan-8-yl)-1-(4-chloro-3-methoxyphenyl)-1,1-difluoro-3-oxopropan-2-yl)-6-(cyclopentyloxy)naphthalene-2-sulfonamide] | < 1 µM |
| NC1CCN(C(=O)[C@@H](NS(=O)(=O)c2ccc(OCC3CCCCC3)cc2)C(F)(F)c2ccc(Cl)cc2)CC1 [Compound 30-1, (R)—N-(3-(4-aminopiperidin-1-yl)-1-(4-chlorophenyl)-1,1-difluoro-3-oxopropan-2-yl)-4-(cyclohexylmethoxy)benzenesulfonamide trifluoroacetate] | 1 to 10 µM |
| N[C@@H]1CCN(C(=O)[C@H](NS(=O)(=O)c2ccc3cc(OC4CCCC4)ccc3c2)C(F)(F)c2ccc(Br)cc2)C1 [Compound 139-2, N—((S)-3-((R)-3-aminopyrrolidin-1l-yl)-1-(4-bromophenyl)-1,1-difluoro-3-oxopropan-2-yl)-6-(cyclopentyloxy)naphthalene-2-sulfonamide] | 1 to 10 µM |
| CCCCOc1ccc(C(F)(F)[C@@H](NS(=O)(=O)c2ccc3cc(OC4CCCC4)ccc3c2)C(=O)N2C3CCC2CC(N)C3)cc1 (stereo partly drawn) [Compound 82-2, N-((2S)-3-(3-amino-8-azabicyclo[3.2.1]octan-8-yl)-1-(4-butoxyphenyl)-1,1-difluoro-3-oxopropan-2-yl)-6-(cyclopentyloxy)naphthalene-2-sulfonamide trifluoroacetate] | 1 to 10 µM |
| NC1CC2CCC(C1)N2C(=O)[C@@H](NS(=O)(=O)c1ccc2cc(OC3CCCC3)ccc2c1)C(F)(F)c1ccc2cc(Br)ccc2c1 (stereo partly drawn) [Compound 38-1, N-((2R)-3-(3-amino-8-azabicyclo[3.2.1]octan-8-yl)-1-(6-bromonaphthalen-2-yl)-1,1-difluoro-3-oxopropan-2-yl)-6-(cyclopentyloxy) naphthalene-2-sulfonamide trifluoroacetate] | 1 to 10 µM |
| CCCCOc1ccc(C(F)(F)[C@@H](C(=O)N2CCC(N)CC2)N(C)S(=O)(=O)c2ccc(OCC3CCCCC3)cc2)cc1 [Compound 58-1, (R)—N-(3-(4-aminopiperidin-1-yl)-1-(4-butoxyphenyl)-1,1-difluoro-3-oxopropan-2-yl)-4-(cyclohexylmethoxy)-N-methylbenzenesulfonamide] | 1 to 10 µM |
| NC1CC2CCC(C1)N2C(=O)[C@H](NS(=O)(=O)c1ccc2cc(OC3CCCC3)ccc2c1)C(F)(F)c1ccc(C(F)(F)F)cc1 (stereo partly drawn) [Compound 54-2, N-((2S)-3-(3-amino-8-azabicyclo[3.2.1]octan-8-yl)-1,1-difluoro-3-oxo-1-(4-(trifluoromethyl)phenyl)propan-2-yl)-6-(cyclopentyloxy) naphthalene-2-sulfonamide] | 10 to 30 µM |
| NC1CC2CCC(C1)N2C(=O)[C@H](NS(=O)(=O)c1ccc2nn(CC3CCCC3)cc2c1)C(F)(F)c1ccc(Br)cc1 (stereo partly drawn) [Compound 77-2, N-((2S)-3-(3-amino-8-azabicyclo[3.2.1]octan-8-yl)-1-(4-bromophenyl)-1,1-difluoro-3-oxopropan-2-yl)-2-(cyclopentylmethyl)-2H-indazole-5-sulfonamide] | 30 to 100 µM |
| NC1CC2CCC(C1)N2C(=O)[C@@H](NS(=O)(=O)c1ccc(OCC2CCCCC2)cc1)C(F)(F)c1cccc(-c2ccccc2)c1 (stereo partly drawn) [Compound 70-1, N-((2R)-1-([1,1′-biphenyl]-3-yl)-3-(3-amino-8-azabicyclo[3.2.1]octan-8-yl)-1,1-difluoro-3-oxopropan-2-yl)-4-(cyclohexylmethoxy)benzenesulfonamide trifluoroacetate] | 1 to 10 µM |
| NC1CCN(C(=O)[C@H](NS(=O)(=O)c2ccc(OCC3CCCCC3)cc2)C(F)(F)c2ccc(OC3CCCCC3)cc2)CC1 [Compound 103-2, (S)—N-(3-(4-aminopiperidin-1-yl)-1-(4-(cyclohexyloxy)phenyl)-1,1-difluoro-3-oxopropan-2-yl)-4-(cyclohexylmethoxy)benzenesulfonamide] | 30 to 100 µM |
| NC1CCN(C(=O)[C@H](NS(=O)(=O)c2ccc3c(cnn3CC3CCCC3)c2)C(F)(F)c2ccc(C(F)(F)F)cc2)CC1 [Compound 93-2, (S)—N-(3-(4-aminopiperidin-1-yl)-1,1-difluoro-3-oxo-1-(4-(trifluoromethyl)phenyl)propan-2-yl)-1-(cyclopentylmethyl)-1H-indazole-5-sulfonamide] | 30 to 100 µM |
| NC1CC2CCC(C1)N2C(=O)[C@@H](NS(=O)(=O)c1ccc2cc(OC3CCCC3)ccc2c1)C(F)(F)c1ccc(-c2ccc(Cl)s2)cc1 (stereo partly drawn) [Compound 101-1, N-((2R)-3-(3-amino-8-azabicyclo[3.2.1]octan-8-yl)-1-(4-(5-chlorothiophen-2-yl)phenyl)-1,1-difluoro-3-oxopropan-2-yl)-6-(cyclopentyloxy)naphthalene-2-sulfonamide] | < 1 µM |
| NC1CCN(C(=O)[C@H](NS(=O)(=O)c2ccc3c(cnn3CC3CCCC3)c2)C(F)(F)c2ccc(Cl)cc2)CC1 [Compound 99-2, (S)—N-(3-(4-aminopiperidin-1-yl)-1-(4-chlorophenyl)-1,1-difluoro-3-oxopropan-2-yl)-1-(cyclopentylmethyl)-1H-indazole-5-sulfonamide] | 30 to 100 µM |
